Assays:
Type in all cases: in vivo
[1] = test system: slender amaranth (Amaranthus viridis L.); assay: Test Example 2: herbicidal effect by soil application to upland field; details: soil surface spray, upland field soil, 1,000 g active ingredient per hectare, 21st day after application
Description: (§1) [table] Test Example 2 Test on Herbicidal Effect by Soil Application to Upland field In a 80 cm2 plastic pot, field soil was filled. Seeds of barnyardgrass (Echinochloa crus-galli (L.) P. Beauv. var. crus-galli), green foxtail (Setaria viridis (L.) P. Beauv.), velvetleaf (Abutilon theophrasti medicus), and slender amaranth (Amaranthus viridis L.) were sown and covered with soils. The wettable powder prepared according to Formulation Example 1 was diluted in water and a 1,000 liter equivalent amount per 1 hectare so that the active ingredient becomes 1,000 g per 1 hectare was uniformly sprayed on a soil surface using a small sprayer. Then, on the 21st day after the application to the plants grew in a greenhouse, the herbicidal effect was examined in accordance with a standard shown in Table 34.

[2] = test system: barnyardgrass (Echinochloa crus-galli (L.) P. Beauv. var. crus-galli); assay: as above; details: soil surface spray, upland field soil, 1,000 g active ingredient per hectare, 21st day after application
Description: as §1

[3] = test system: green foxtail (Setaria viridis (L.) P. Beauv.); assay: as above; details: soil surface spray, upland field soil, 1,000 g active ingredient per hectare, 21st day after application
Description: as §1

[4] = test system: velvetleaf (Abutilon theophrasti medicus); assay: as above; details: soil surface spray, upland field soil, 1,000 g active ingredient per hectare, 21st day after application
Description: as §1

[5] = test system: heartshape false pickerelweed (Monochoria vaginalis (Burm.f.) C.Presl); assay: Test Example 1: herbicidal effect by soil application to paddy field; details: paddy field soil application; active ingredient 1,000 g per 1 hectare; wettable powder added dropwise to water surface the day after sowing; examined on the 21st day after application
Method in brief: (§2)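 Plants were sown in flooded (3 cm) paddy soil and evaluated for herbicidal effect 21 days after soil application in a greenhouse.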

[6] = test system: Japanese bulrush (Scirpus juncoides Roxb.); assay: as above; details: paddy field soil application; active ingredient 1,000 g per 1 hectare; wettable powder added dropwise to water surface the day after sowing; examined on the 21st day after application
Method in brief: as §2

[7] = test system: early watergrass (Echinochloa oryzicola Vasing); assay: as above; details: paddy field soil application; active ingredient 1,000 g per 1 hectare; wettable powder added dropwise to water surface the day after sowing; examined on the 21st day after application
Method in brief: as §2

SMILES | herbicidal effect (index), Slender Amaranth [1] | herbicidal effect (index), Barnyardgrass [2] | herbicidal effect (index), Green Foxtail [3] | herbicidal effect (index), Velvetleaf [4] | herbicidal effect, Monochoria vaginalis (Burm. f.) C. Presl [5] | herbicidal effect, Scirpus juncoides Roxb. [6] | herbicidal effect, Echinochloa oryzicola Vasing [7]
CN(c1ccccc1)n1c(C(F)(F)F)ccc(C(=O)C2=C(O)CCCC2=O)c1=O [I-182] | 5 (90% or more of herbicidal effect and crop phytotoxicity) | 5 (90% or more of herbicidal effect and crop phytotoxicity) | 4 (70 to less than 90% of herbicidal effect and crop phytotoxicity) | 5 (90% or more of herbicidal effect and crop phytotoxicity) | 5 (90% or more of herbicidal effect and crop phytotoxicity) | 5 (90% or more of herbicidal effect and crop phytotoxicity) | 5 (90% or more of herbicidal effect and crop phytotoxicity)
COn1c(C(F)(F)F)ccc(C(=O)C2=C(O)CCCC2=O)c1=O [I-202] | 5 (90% or more of herbicidal effect and crop phytotoxicity) | 5 (90% or more of herbicidal effect and crop phytotoxicity) | 5 (90% or more of herbicidal effect and crop phytotoxicity) | 5 (90% or more of herbicidal effect and crop phytotoxicity) | 5 (90% or more of herbicidal effect and crop phytotoxicity) | 5 (90% or more of herbicidal effect and crop phytotoxicity) | 5 (90% or more of herbicidal effect and crop phytotoxicity)
CCn1c(C(F)(F)Cl)ccc(C(=O)C2=C(O)CCCC2=O)c1=O [I-226] | 5 (90% or more of herbicidal effect and crop phytotoxicity) | 4 (70 to less than 90% of herbicidal effect and crop phytotoxicity) | 3 (50 to less than 70% of herbicidal effect and crop phytotoxicity) | 5 (90% or more of herbicidal effect and crop phytotoxicity) | 5 (90% or more of herbicidal effect and crop phytotoxicity) | 5 (90% or more of herbicidal effect and crop phytotoxicity) | 5 (90% or more of herbicidal effect and crop phytotoxicity)
Cc1ccc(C(=O)C2=C(O)CCCC2=O)c(=O)n1-c1ccc(Cl)cc1 [I-233] | 5 (90% or more of herbicidal effect and crop phytotoxicity) | 4 (70 to less than 90% of herbicidal effect and crop phytotoxicity) | 3 (50 to less than 70% of herbicidal effect and crop phytotoxicity) | 5 (90% or more of herbicidal effect and crop phytotoxicity) | 5 (90% or more of herbicidal effect and crop phytotoxicity) | 5 (90% or more of herbicidal effect and crop phytotoxicity) | 5 (90% or more of herbicidal effect and crop phytotoxicity)
Cn1c(C(F)(F)F)ccc(C(=O)C2=C(Sc3ccc(Cl)cc3Cl)CCCC2=O)c1=O [II-14] | 5 (90% or more of herbicidal effect and crop phytotoxicity) | 4 (70 to less than 90% of herbicidal effect and crop phytotoxicity) | 3 (50 to less than 70% of herbicidal effect and crop phytotoxicity) | 5 (90% or more of herbicidal effect and crop phytotoxicity) | 5 (90% or more of herbicidal effect and crop phytotoxicity) | 5 (90% or more of herbicidal effect and crop phytotoxicity) | 5 (90% or more of herbicidal effect and crop phytotoxicity)
COC1=C(C(=O)c2ccc(C(F)(F)F)n(C)c2=O)C(=O)CCC1 [II-22] | 5 (90% or more of herbicidal effect and crop phytotoxicity) | 4 (70 to less than 90% of herbicidal effect and crop phytotoxicity) | 4 (70 to less than 90% of herbicidal effect and crop phytotoxicity) | 5 (90% or more of herbicidal effect and crop phytotoxicity) | 5 (90% or more of herbicidal effect and crop phytotoxicity) | 5 (90% or more of herbicidal effect and crop phytotoxicity) | 5 (90% or more of herbicidal effect and crop phytotoxicity)
O=C(C1=C(O)C2CCC(C2)C1=O)c1ccc(C(F)(F)F)n(-c2c(F)cccc2F)c1=O (stereo not drawn) [III-37] | 4 (70 to less than 90% of herbicidal effect and crop phytotoxicity) | 4 (70 to less than 90% of herbicidal effect and crop phytotoxicity) | 4 (70 to less than 90% of herbicidal effect and crop phytotoxicity) | 5 (90% or more of herbicidal effect and crop phytotoxicity) | 5 (90% or more of herbicidal effect and crop phytotoxicity) | 4 (70 to less than 90% of herbicidal effect and crop phytotoxicity) | 5 (90% or more of herbicidal effect and crop phytotoxicity)
Cn1c(C(F)(F)F)ccc(C(=O)C2=C(O)C3C=CC(C3)C2=O)c1=O (stereo not drawn) [III-42] | 5 (90% or more of herbicidal effect and crop phytotoxicity) | 4 (70 to less than 90% of herbicidal effect and crop phytotoxicity) | 3 (50 to less than 70% of herbicidal effect and crop phytotoxicity) | 5 (90% or more of herbicidal effect and crop phytotoxicity) | 5 (90% or more of herbicidal effect and crop phytotoxicity) | 5 (90% or more of herbicidal effect and crop phytotoxicity) | 5 (90% or more of herbicidal effect and crop phytotoxicity)
CC(CCn1c(C(F)(F)F)ccc(C(=O)c2cnn(C)c2O)c1=O)=C(F)F [IV-32] | 5 (90% or more of herbicidal effect and crop phytotoxicity) | 4 (70 to less than 90% of herbicidal effect and crop phytotoxicity) | 3 (50 to less than 70% of herbicidal effect and crop phytotoxicity) | 5 (90% or more of herbicidal effect and crop phytotoxicity) | 5 (90% or more of herbicidal effect and crop phytotoxicity) | 5 (90% or more of herbicidal effect and crop phytotoxicity) | 5 (90% or more of herbicidal effect and crop phytotoxicity)
CCCS(=O)(=O)Oc1c(C(=O)c2ccc(C(F)(F)F)n(CCS(C)(=O)=O)c2=O)cnn1C [IV-55] | 5 (90% or more of herbicidal effect and crop phytotoxicity) | 5 (90% or more of herbicidal effect and crop phytotoxicity) | 5 (90% or more of herbicidal effect and crop phytotoxicity) | 4 (70 to less than 90% of herbicidal effect and crop phytotoxicity) | 5 (90% or more of herbicidal effect and crop phytotoxicity) | 4 (70 to less than 90% of herbicidal effect and crop phytotoxicity) | 4 (70 to less than 90% of herbicidal effect and crop phytotoxicity)
CCCS(=O)(=O)Oc1c(C(=O)c2ccc(C(F)(F)F)n(-c3ccc([N+](=O)[O-])cc3)c2=O)cnn1C [IV-68] | 5 (90% or more of herbicidal effect and crop phytotoxicity) | 4 (70 to less than 90% of herbicidal effect and crop phytotoxicity) | 4 (70 to less than 90% of herbicidal effect and crop phytotoxicity) | 5 (90% or more of herbicidal effect and crop phytotoxicity) | 5 (90% or more of herbicidal effect and crop phytotoxicity) | 4 (70 to less than 90% of herbicidal effect and crop phytotoxicity) | 4 (70 to less than 90% of herbicidal effect and crop phytotoxicity)
CCCS(=O)(=O)Oc1c(C(=O)c2ccc(C(F)(F)F)n(-c3cc(F)cc(F)c3)c2=O)c(C)nn1C [IV-82] | 4 (70 to less than 90% of herbicidal effect and crop phytotoxicity) | 5 (90% or more of herbicidal effect and crop phytotoxicity) | 4 (70 to less than 90% of herbicidal effect and crop phytotoxicity) | 5 (90% or more of herbicidal effect and crop phytotoxicity) | 5 (90% or more of herbicidal effect and crop phytotoxicity) | 3 (50 to less than 70% of herbicidal effect and crop phytotoxicity) | 5 (90% or more of herbicidal effect and crop phytotoxicity)

Source: US8076487B2, “Pyridone derivative and herbicide” (Kumiai Chemical Industry Co., Ltd., priority 2006, dated 2011)
